# Measurements: patent US12195482B1 (Arcus Biosciences, Inc., priority 2022, dated 2025)
# Experiments:
# Axl = molecular target: T1, Axl (Homo sapiens, UniProt P30530); test: Biochemical potency, HTRF KinEASE-TK kinase assay; set-up: purchased Invitrogen; conditions: 5 nM AXL, 700 μM ATP
# T1 sequence (P30530 26-894): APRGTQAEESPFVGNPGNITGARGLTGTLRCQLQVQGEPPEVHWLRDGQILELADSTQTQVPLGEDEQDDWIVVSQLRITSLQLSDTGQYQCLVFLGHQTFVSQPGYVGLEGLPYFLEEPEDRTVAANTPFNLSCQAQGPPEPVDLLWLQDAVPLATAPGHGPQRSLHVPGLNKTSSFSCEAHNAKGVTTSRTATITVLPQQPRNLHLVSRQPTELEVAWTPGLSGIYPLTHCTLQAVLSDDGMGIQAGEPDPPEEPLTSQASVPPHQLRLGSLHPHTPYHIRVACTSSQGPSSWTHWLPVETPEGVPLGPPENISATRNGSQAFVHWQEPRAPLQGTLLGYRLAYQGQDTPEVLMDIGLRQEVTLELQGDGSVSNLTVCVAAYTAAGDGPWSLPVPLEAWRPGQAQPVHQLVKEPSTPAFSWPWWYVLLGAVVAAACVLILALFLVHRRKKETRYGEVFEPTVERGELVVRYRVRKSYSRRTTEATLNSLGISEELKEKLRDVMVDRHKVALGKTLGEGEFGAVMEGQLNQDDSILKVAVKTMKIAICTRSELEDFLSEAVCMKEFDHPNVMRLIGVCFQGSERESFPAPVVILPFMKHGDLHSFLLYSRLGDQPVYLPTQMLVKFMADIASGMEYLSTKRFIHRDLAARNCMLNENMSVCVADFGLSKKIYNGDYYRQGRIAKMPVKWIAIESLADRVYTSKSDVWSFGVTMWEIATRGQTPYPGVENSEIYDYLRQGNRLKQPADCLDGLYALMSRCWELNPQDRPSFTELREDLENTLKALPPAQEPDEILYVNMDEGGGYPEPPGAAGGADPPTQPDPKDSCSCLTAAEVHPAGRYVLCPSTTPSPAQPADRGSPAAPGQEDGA
# How it was run: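 Steps: compound plus kinase, 1 h RT; add ATP (700 µM final) and biotin-TK substrate (800 nM final); run 2 h RT; stop into streptavidin-XL665/anti-phospho cryptate detection mix, 1 h; read 665/620. AXL at 5 nM, TYRO3 and MER at 1 nM.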
# p-AXL = molecular target: T2, p-AXL (Homo sapiens, UniProt P30530); test: Axl phosphorylation inhibition ELISA in HEK293T cells transfected with NanoLuc-tagged AXL; format: cell-based; conditions: 1 h compound incubation, media (OptiMEM)
# T2 construct: expressed in transfected cells; host or cells: HEK293T
# T2 sequence (P30530 26-894): T1 sequence (P30530 26-894)
# How it was run: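 HEK293T cells transiently transfected one day earlier with NanoLuc-tagged AXL were exposed to 22-point 2-fold compound dilutions for 1 h at 37° C (70,000 cells/well), then lysed. Lysates captured on anti-phospho-tyrosine coated plates for 2 h; bound p-AXL read by NanoLuc luminescence; IC50 from 4-parameter logistic fit.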
Structure (SMILES),IC50 (Axl),IC50 (p-AXL)
"Cc1ccc(C#N)c(-c2ccc(-c3n[nH]c4ncc(-c5ccc6c(c5)CC[C@@](C)(N5CCC[C@H]5C)CC6)cc34)cc2)n1 [Example 71, 6-Methyl-2-(4-{5-[(7S)-7-methyl-7-[(2R)-2-methylpyrrolidin-1-yl]-6,7,8,9-tetrahydro-5H-benzo[7]annulen-2-yl]-1H-pyrazolo[3,4-b]pyridin-3-yl}phenyl)pyridine-3-carbonitrile]",< 100 nM,< 100 nM
"Cc1ccc(C)c(-c2ccc(-c3n[nH]c4ncc(-c5ccc6c(c5)CC[C@@H](N[C@H]5CCCOC5)CC6)cc34)cc2)n1 [Example 140, (3S)—N-[(7S)-2-{3-[4-(3,6-Dimethylpyridin-2-yl)phenyl]-1H-pyrazolo[3,4-b]pyridin-5-yl}-6,7,8,9-tetrahydro-5H-benzo[7]annulen-7-yl]oxan-3-amine]",< 100 nM,< 100 nM
"Cc1ccc(C)c(-c2ccc(-c3c[nH]c4ncc(-c5ccc6c(c5)CC[C@@H](N5C7COCC5C7)CC6)cc34)cc2)n1 [Example 137, 6-[(7S)-2-{3-[4-(3,6-Dimethylpyridin-2-yl)phenyl]-1H-pyrrolo[2,3-b]pyridin-5-yl}-6,7,8,9-tetrahydro-5H-benzo[7]annulen-7-yl]-3-oxa-6-azabicyclo[3.1.1]heptane]",< 100 nM,< 100 nM
"Cc1cc(=O)n(C)nc1-c1ccc(-c2c[nH]c3ncc(-c4ccc5c(c4)CC[C@@H](N4C6COCC4C6)CC5)cc23)cc1 [Example 20, 2,5-Dimethyl-6-(4-{5-[(7S)-7-{3-oxa-6-azabicyclo[3.1.1]heptan-6-yl}-6,7,8,9-tetrahydro-5H-benzo[7]annulen-2-yl]-1H-pyrrolo[2,3-b]pyridin-3-yl}phenyl)-2,3-dihydropyridazin-3-one]",< 100 nM,< 100 nM
"Cc1ccc(C)c(-c2ccc(-c3c[nH]c4ncc(-c5ccc6c(c5)CC[C@@H](N5C7COC[C@H]5C7)CC6)cc34)c(F)c2)n1 [Example 144, (1R)-6-[(7S)-2-{3-[4-(3,6-Dimethylpyridin-2-yl)-2-fluorophenyl]-1H-pyrrolo[2,3-b]pyridin-5-yl}-6,7,8,9-tetrahydro-5H-benzo[7]annulen-7-yl]-3-oxa-6-azabicyclo[3.1.1]heptane]",< 100 nM,< 100 nM
"Cc1cnc(C)c(-c2ccc(-c3c[nH]c4ncc(-c5ccc6c(c5)CC[C@@H](N5C[C@@H]7C[C@H]5CO7)CC6)cc34)cc2)n1 [Example 62, (1S,4S)-5-[(7S)-2-{3-[4-(3,6-Dimethylpyrazin-2-yl)phenyl]-1H-pyrrolo[2,3-b]pyridin-5-yl}-6,7,8,9-tetrahydro-5H-benzo[7]annulen-7-yl]-2-oxa-5-azabicyclo[2.2.1]heptane]",< 100 nM,< 100 nM
"Cc1cnc(-c2ccc(-c3n[nH]c4ncc(-c5ccc6c(c5)CC[C@@H](N5CCCC5)CC6)cc34)cc2)c(C)n1 [Example 189, 3,5-Dimethyl-2-(4-{5-[(7S)-7-(pyrrolidin-1-yl)-6,7,8,9-tetrahydro-5H-benzo[7]annulen-2-yl]-1H-pyrazolo[3,4-b]pyridin-3-yl}phenyl)pyrazine]",< 100 nM,100 to 1000 nM
"Cc1cccnc1-c1ccc(-c2n[nH]c3ncc(-c4ccc5c(c4)CC(N4CCCC4)CC5)cc23)cc1 (centres unmarked) [Example 67, 3-Methyl-2-(4-{5-[7-(pyrrolidin-1-yl)-5,6,7,8-tetrahydronaphthalen-2-yl]-1H-pyrazolo[3,4-b]pyridin-3-yl}phenyl)pyridine]",< 100 nM,100 to 1000 nM
"Cc1cnc(-c2ccc(-c3n[nH]c4ncc(-c5ccc6c(c5)CC[C@@](C)(N5CCC[C@H]5C)CC6)cc34)cc2)c(C)n1 [Example 188, 3,5-Dimethyl-2-(4-{5-[(7S)-7-methyl-7-[(2R)-2-methylpyrrolidin-1-yl]-6,7,8,9-tetrahydro-5H-benzo[7]annulen-2-yl]-1H-pyrazolo[3,4-b]pyridin-3-yl}phenyl)pyrazine]",< 100 nM,< 100 nM
"Cc1ccc(C(C)(C)O)nc1-c1ccc(-c2c[nH]c3ncc(-c4ccc5c(c4)CC[C@@H](N4C6COCC4C6)CC5)cc23)cc1 [Example 8, 2-[5-Methyl-6-(4-{5-[(7S)-7-{3-oxa-6-azabicyclo[3.1.1]heptan-6-yl}-6,7,8,9-tetrahydro-5H-benzo[7]annulen-2-yl]-1H-pyrrolo[2,3-b]pyridin-3-yl}phenyl)pyridin-2-yl]propan-2-ol]",< 100 nM,100 to 1000 nM
"Cn1ncnc1-c1ccc(-c2n[nH]c3ncc(-c4ccc5c(c4)CC[C@@H](N4C[C@@H]6C[C@H]4CO6)CC5)cc23)cc1 [Example 135, (1S,4S)-5-[(7S)-2-{3-[4-(1-Methyl-1H-1,2,4-triazol-5-yl)phenyl]-1H-pyrazolo[3,4-b]pyridin-5-yl}-6,7,8,9-tetrahydro-5H-benzo[7]annulen-7-yl]-2-oxa-5-azabicyclo[2.2.1]heptane]",< 100 nM,< 100 nM
"Cc1cccnc1-c1ccc(-c2n[nH]c3ncc(-c4ccc5c(c4)CCC(N4CCCC4)C5)cc23)cc1 (centres unmarked) [Example 19, 3-Methyl-2-(4-{5-[6-(pyrrolidin-1-yl)-5,6,7,8-tetrahydronaphthalen-2-yl]-1H-pyrazolo[3,4-b]pyridin-3-yl}phenyl)pyridine]",< 100 nM,100 to 1000 nM
"Cc1ccc(C#N)nc1-c1ccc(-c2c[nH]c3ncc(-c4ccc5c(c4)CC[C@@H](N4C6COCC4C6)CC5)cc23)cc1 [Example 75, 5-Methyl-6-(4-{5-[(7S)-7-{3-oxa-6-azabicyclo[3.1.1]heptan-6-yl}-6,7,8,9-tetrahydro-5H-benzo[7]annulen-2-yl]-1H-pyrrolo[2,3-b]pyridin-3-yl}phenyl)pyridine-2-carbonitrile]",< 100 nM,< 100 nM
"Cc1cccnc1-c1cnc(-c2n[nH]c3ncc(-c4ccc5c(c4)CC[C@@H](N4C6COCC4C6)CC5)cc23)cn1 [Example 193, 6-[(7S)-2-{3-[5-(3-Methylpyridin-2-yl)pyrazin-2-yl]-1H-pyrazolo[3,4-b]pyridin-5-yl}-6,7,8,9-tetrahydro-5H-benzo[7]annulen-7-yl]-3-oxa-6-azabicyclo[3.1.1]heptane]",< 100 nM,< 100 nM
"Cc1ccc(C(C)(C)O)nc1-c1ccc(-c2n[nH]c3ncc(-c4ccc5c(c4)CC[C@@H](N4C6COCC4C6)CC5)cc23)cc1 [Example 192, 2-[5-Methyl-6-(4-{5-[(7S)-7-{3-oxa-6-azabicyclo[3.1.1]heptan-6-yl}-6,7,8,9-tetrahydro-5H-benzo[7]annulen-2-yl]-1H-pyrazolo[3,4-b]pyridin-3-yl}phenyl)pyridin-2-yl]propan-2-ol]",< 100 nM,100 to 1000 nM
"Cc1cccnc1-c1cccc(-c2n[nH]c3ncc(-c4ccc5c(c4)CC[C@@H](N4C6COCC4C6)CC5)cc23)c1 [Example 81, 6-[(7S)-2-{3-[3-(3-Methylpyridin-2-yl)phenyl]-1H-pyrazolo[3,4-b]pyridin-5-yl}-6,7,8,9-tetrahydro-5H-benzo[7]annulen-7-yl]-3-oxa-6-azabicyclo[3.1.1]heptane]",< 100 nM,< 100 nM
"COC[C@H]1CCN([C@H]2CCc3ccc(-c4cnc5[nH]cc(-c6ccc(-c7nc(C)cnc7C)cc6)c5c4)cc3CC2)C1 [Example 63, 3-(4-{5-[(7S)-7-[(3S)-3-(Methoxymethyl)pyrrolidin-1-yl]-6,7,8,9-tetrahydro-5H-benzo[7]annulen-2-yl]-1H-pyrrolo[2,3-b]pyridin-3-yl}phenyl)-2,5-dimethylpyrazine]",< 100 nM,< 100 nM
"Cc1cccnc1-c1cnc(-c2c[nH]c3ncc(-c4ccc5c(c4)CC[C@@H](N4C6COCC4C6)CC5)cc23)nc1 [Example 37, 6-[(7S)-3-[3-[5-(3-Methylpyridin-2-yl)pyrimidin-2-yl]-1H-pyrrolo[2,3-b]pyridin-5-yl]-6,7,8,9-tetrahydro-5H-benzo[7]annulen-7-yl]-3-oxa-6-azabicyclo[3.1.1]heptane]",< 100 nM,< 100 nM
"Cc1cccc(F)c1-c1ccc(-c2c[nH]c3ncc(-c4ccc5c(c4)CC[C@@H](N4C6COCC4C6)CC5)cc23)cc1 [Example 84, 6-[(7S)-2-(3-{2′-Fluoro-6′-methyl-[1,1′-biphenyl]-4-yl}-1H-pyrrolo[2,3-b]pyridin-5-yl)-6,7,8,9-tetrahydro-5H-benzo[7]annulen-7-yl]-3-oxa-6-azabicyclo[3.1.1]heptane]",< 100 nM,> 1000 nM
